Entries after “also recorded” stand apart in the source; their conditions may differ. Ends that are not written are not given here.
Experiments:
[1] = system: UMR-106 rat osteosarcoma cells; test: Intracellular free calcium concentration (FURA-2) with KCl stimulation; format: cell-based; details: cultured UMR osteoblast cells, in the presence of KCl
Description: Because osteoporosis is a progressive syndrome, a model is required and the use of cultured osteoblasts of the UMR-106.rat osteosarcoma cells, ATCC CRL 1661 have been used as the model. Uptake of calcium in these cells has been monitored using the FURA-2 method, wherein a fluorescent dye which is specific for calcium is used as a marker for calcium change into the cells. Cells are incubated with 1-10 μM of the acetomethoxy ester of FURA-2 for 30-60 minutes. Upon uptake, the ester is hydrolyzed to release free FURA-2, which selectively binds free Ca^2+. FURA-2 has a characteristic fluorescence spectrum, which wavelength is shifted when the dye binds to free Ca^2+. According to the method, Ca^2+ which is present in the cell can be quantified by exciting the dye at two different wavelengths, 340 and 380 nm. The emission fluorescence is measured at 510 nm. […] It is conventional to report the concentration of calcium within the cell in terms of the fluorescence ratio, the 340/380 ratio. […]
Intracellular free calcium concentration was measured using the fluorescent dye FURA-2 according to the method of Grynkiewicz et al., J. Biol. Chem., 260, 3440 (1985) and Pang et al., P. N. A. S. (USA), 87, 623 (1990). […] Quantitation is obtained by exciting the dye at two different wavelengths, preferably 340 and 380 nm and measuring the fluorescent emission at 510 nm. […]

Sprague-Dawley rats = test: In vivo blood pressure measurement in anaesthetized rats
Description: Sprague-Dawley (S-D) rats were anaesthetized with pentobarbital and a cannula was inserted into the carotid artery. The rats were kept sedated during the procedure and were injected with PTH peptides only when the blood pressure of the rats were stable. Peptides were injected through a cannula in the jugular vein, in amounts of 1, 3 and 5 or more μg/kg and the mean systolic and diastolic blood pressure was monitored continuously throughout the procedure. Results are reported with comparison to bPTH-(1-34).

[2] = system: right atrial tissue of Sprague-Dawley rats; test: In vitro atrial contractility and contraction rate measurement; details: Sprague-Dawley rat right atrium; for effect on contraction rate of right atrial tissue: FIGS. 24-25
Excerpt: We have also developed a method of modeling the chronotropic effects of natural and synthetic chemicals using the right atrium from Sprague-Dawleyrats and measuring the change in the force and rate of atrium contraction. This method and the effects of bovine PTH (1-34) in this system are described in Tenner et al, The Canadian Journal of Physiology and Pharmacology, Volume 61, No. 10 (1983) pp. 1162-1167. […] FIGS. 24-25 illustrate the effect of the PTH analogues of this invention as measured using this in vitro technique.
The assay was performed according to Tenner et al., Canadian Journal of Physiology and Pharmacology, Vol. 61, No. 10 (1983) pp. 1162-1167. Sprague-Dawley rats weighing between 100 and 250 g were treated with heparin (500 IU, i.p.) 15 minutes prior to decapitation. Thoracotomies were performed and the heart rapidly excised and placed in a cold physiological salt solution (PSS) having the following composition (in millimolar): NaCl, 120; KCl, 5.63; CaCl2, 2.0; MgCl2, 2.1; NAHCO3, 25.0; dextrose, 9.7. The solution was continuously aerated by a gas mixture of 95% O2 -5% CO2. The right atrium was isolated and suspended in a tissue chamber containing 20 mL of PSS at 37° C., pH 7.4. Atria were allowed to equilibrate for 1 hr under a resting tension of 1 g.
The atrial rate and force were determined from contractions recorded by a Grass FT.03 force-displacement transducer and a Grass model 79 polygraph. The Basial atrial rate f or control atria (as determined by counting the frequency of contractions) was 258±7 bpm (n=29). Basal developed force of the spontaneously beating right atria was 0.33±0.06 g (n=10) . Dose-response curves for the peptides were obtained by cumulative addition of the respective peptides. Drug dose is calculated on the basis of the final concentration in the bath solution.

[3] = system: rat tail artery helical strip; test: In vitro rat tail artery helical strip tension assay; details: precontracted with AVP, FIG. 20
Excerpt: We have developed a method for modeling the hypotensive effects of natural and synthetic chemical compounds using helically cut tail arteries from Sprague-Dawley rats in a Sawyer-Bartlestone chamber, measuring the change in tension with a force displacement transducer. This method and the effect of bovine PTH-(1-34) in this system is described in Blood Vessels, 22, 57 (1985). […] FIGS. 12, 16 and 20 illustrate the effect of the PTH analogues of this invention as measured using this in vitro technique. Alternatively, the strips may be precontracted using other pressor substances such as norepinephrine (NE) or KCl.
The assay was performed according to Pang et al., Blood Vessels, 22, 57 (1985). Sprague-Dawley rats were anaesthetized with pentobarbital and the tail artery excised and placed in ice-cold Krebs-Hanseleit solution (KHS) oxygenated with 95% O2, 5% CO2. […] The force generated by the strips was measured with a Grass FT03 force displacement transducer and recorded on a polygraph. […]
One to two minutes prior to addition of a peptide, the strips were contracted by addition of either arginine vasopressin (AVP), potassium chloride (KCl) or norepinephrine (NE) to the bath. The peptide was then added to the bath and the degree of relaxation measured. […] Drug dose is calculated on the basis of the final concentration in the bath solution.

Row | Molecule | effect on KCl-induced intracellular [Ca2+]i increase [1] | condition of rats due to blood pressure (Sprague-Dawley rats; 5 μg/kg, Sprague-Dawley rats) | effect on contractility of right atrial tissue ([2]; FIG. 24) | effect on contraction rate of right atrial tissue [2] | relaxation of rat tail artery helical strips [3] | effect on mean arterial blood pressure (Sprague-Dawley rats; anesthetized Sprague-Dawley rats, FIGS. 15, 19)
1 | PTH: parathyroid hormone (native PTH); in FIGS. 14 a-d it is bPTH-(1-34) [reference compound] | inhibits intracellar [Ca^2+ ]i increases | essentially moribund |  |  |  | 
2 | SVSEIQLMHNLGKHLNSMERVEWLAAALQDVHNF [Cs221] | comparable to the inhibition of intracellular [Ca^2+ ]i increases by hPTH; also recorded: lower intracellular calcium increments |  | minimal effect | minimal effect | least relaxation | least decrease in blood pressure
3 | Cs2001: human PTH 1-84, no substitution (SEQ ID NO:2) (peptide) SVSEIQLMHNLGKHLNSMERVEWLRKKLQDVHNFVALGASIAYRDGSSQRPRKKEDNVLVESHQKSLGEADKADVDVLIKAKPQ |  |  |  | increase the contraction rate |  | 

Reference: patent US5317010A, “Parathyroid hormone analogues substituted at AA 25, 26, 27, and use in osteoporosis treatment” (Pang; Peter K. T., priority 1991, dated 1994)
